Values joined by “and” are separate entries in the source; they are usually repeats but may differ in a detail not shown here. Equal values may be shown once. Read-outs that look alike come from different tables or passages of the source.

The source of these data is PMC10282093, “Structural basis of α1A-adrenergic receptor activation and recognition by an extracellular nanobody” (Nature Communications, 2023).

The target of test [1] is T1, α1AAR (Homo sapiens, UniProt P35348).
T1 sequence (P35348 1-370): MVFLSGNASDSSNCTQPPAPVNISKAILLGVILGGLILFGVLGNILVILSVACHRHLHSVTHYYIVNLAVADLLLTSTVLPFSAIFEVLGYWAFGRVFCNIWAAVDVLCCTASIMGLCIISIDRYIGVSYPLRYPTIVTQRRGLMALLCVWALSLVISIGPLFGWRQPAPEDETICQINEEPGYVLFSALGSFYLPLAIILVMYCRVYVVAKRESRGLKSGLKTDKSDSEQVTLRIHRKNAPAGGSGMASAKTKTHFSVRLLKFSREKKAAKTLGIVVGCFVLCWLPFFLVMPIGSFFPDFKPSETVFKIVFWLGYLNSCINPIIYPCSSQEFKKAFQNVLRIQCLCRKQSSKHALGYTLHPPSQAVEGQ
The experiment in a line: [3H]prazosin radioligand binding, Sf9 membranes. To be noted: for [3H]prazosin binding: SupFig 5b, listed as Tam.
Procedure: After centrifugation, the pellet was homogenized in binding buffer and used as the membrane fraction in binding assays. […] Receptors were incubated for 1 h at room temperature with various concentrations of ligand in a total volume of 100 µl. After the reaction, the mixture was trapped on Whatman GF/B glass filters. Bound and free radioligands were separated by washing with ice-cold binding buffer. Radioactivity was measured on a MicroBeta2 liquid scintillation counter (PerkinElmer).

A further test has as its system HEK293T cells (mock). As to the kind of experiment: Glo-sensor cAMP assay, mock (negative control). The format is cell-based. On the technique in general: cAMP levels reflect the balance of adenylyl cyclase and phosphodiesterase activity.
The target in test [2] is T2, α1AAR (Homo sapiens, UniProt P35348).
T2 sequence (P35348 1-466): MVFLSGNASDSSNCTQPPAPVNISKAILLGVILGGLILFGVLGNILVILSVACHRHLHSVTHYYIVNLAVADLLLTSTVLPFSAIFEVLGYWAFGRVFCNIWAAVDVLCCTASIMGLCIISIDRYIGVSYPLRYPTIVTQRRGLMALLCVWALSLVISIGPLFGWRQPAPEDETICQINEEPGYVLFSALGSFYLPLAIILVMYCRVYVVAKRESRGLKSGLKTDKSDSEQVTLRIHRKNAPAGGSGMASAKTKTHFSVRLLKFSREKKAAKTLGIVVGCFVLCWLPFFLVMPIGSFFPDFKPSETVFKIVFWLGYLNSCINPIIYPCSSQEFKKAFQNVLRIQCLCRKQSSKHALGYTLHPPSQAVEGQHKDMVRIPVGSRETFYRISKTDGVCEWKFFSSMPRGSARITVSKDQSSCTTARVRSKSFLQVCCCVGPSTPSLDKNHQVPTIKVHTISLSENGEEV
The experiment in a line: Glo-sensor cAMP signaling assay with engineered Gsq protein in HEK293T cells. To be noted: HEK-293T.
Procedure: In brief, pGloSensor™−22F plasmid, receptor plasmid, and Gsq plasmid were transfected into HEK293T cells. At 24 h after transfection, the cells were switched into a CO2-Independent Medium (Gibco) and incubated with GloSensor^TM cAMP reagent. The mixture was then transferred to a 96-well white plate. The 96-well plate is placed at 37 °C in the dark for 1 h, then placed at room temperature in the dark for 1 h before use. […] The result curves were calculated and fitted by GraphPad Prism 9.

Procedure for HEK293T cells (mock): In brief, […] plasmid, receptor plasmid, and Gsq plasmid were transfected into HEK293T cells. At 24 h after transfection, the cells were switched into a CO2-Independent Medium (Gibco) and incubated with GloSensor^TM cAMP reagent. The mixture was then transferred to a 96-well white plate. The 96-well plate is placed at 37 °C in the dark for 1 h, then placed at room temperature in the dark for 1 h before use. […] The result curves were calculated and fitted by GraphPad Prism 9.

For the molecule `CCOc1ccccc1OCCN[C@H](C)Cc1ccc(OC)c(S(N)(=O)=O)c1` [Tamsulosin, tamsulosin], the “[3H]prazosin binding” value at α1AAR [1] (Tam Log[M] -4) was 3.325% and 3.807% and 3.682%; on α1AAR [1] (Tam Log[M] -5), 5.496% and 6.839% and 6.881%; at α1AAR [1] (Tam Log[M] -6), 11.244% and 11.6216% and 10.1426%; at α1AAR [1] (Tam Log[M] -7) it was 16.0268% and 19.0266% and 22.7187%; on α1AAR [1] (Tam Log[M] -8), 68.1875% and 65.3346% and 66.6562%; on α1AAR [1] (Tam Log[M] -9) it was 89.8993% and 114.569% and 102.297%. Also, the “[3H]prazosin binding” value at α1AAR [1] (Tam Log[M] -10) was 91.4097% and 102.161% and 96.6541%; at α1AAR [1] (Tam Log[M] -11), 80.1028% and 92.7732% and 127.271%.

For the molecule `NC[C@H](O)c1ccc(O)c(O)c1` [Noradrenaline, noradrenaline], the “cAMP Glo-sensor signal (Noradrenaline %)” value is 41.093% and 40.8624% and 40.5271% in the test with HEK293T cells (mock) (NA Log[M] -4, listed as NA); 20.1779% and 21.0064% and 19.7646% in the test with HEK293T cells (mock) (NA Log[M] -5, listed as NA); 7.941% and 8.285% and 8.539% in the test on HEK293T cells (mock) (NA Log[M] -6, listed as NA); 6.318% and 5.663% and 5.337% with HEK293T cells (mock) (NA Log[M] -7, listed as NA); 5.486% and 4.494% and 5.028% in the test on HEK293T cells (mock) (NA Log[M] -8, listed as NA); 5.1702% and 5.365% and 5.344% in the test with HEK293T cells (mock) (NA Log[M] -9, listed as NA). Besides, the “cAMP Glo-sensor signal (Noradrenaline %)” value in the test on HEK293T cells (mock) (NA Log[M] -10, listed as NA) was 5.58% and 5.603% and 5.064%; in the test on HEK293T cells (mock) (NA Log[M] -11, listed as NA), 6.233% and 5.97% and 5.757%. Besides, the activation at 0.01 µM worked out at 27.1% on α1AAR [2] (5 min, read-out: α1AAR activation (Noradrenaline %), 10 nM NA, 5 min); 32.4% at α1AAR [2] (5.5 min, read-out: α1AAR activation (Noradrenaline %), 10 nM NA, […]); 36.3% on α1AAR [2] (0.1 h, read-out: α1AAR activation (Noradrenaline %), 10 nM NA, 6 min); 40.4% on α1AAR [2] (6.5 min, read-out: α1AAR activation (Noradrenaline %), 10 nM NA, […]); 44.7% at α1AAR [2] (7 min, read-out: α1AAR activation (Noradrenaline %), 10 nM NA, 7 min); 51.2% on α1AAR [2] (0.125 h, read-out: α1AAR activation (Noradrenaline %), 10 nM NA, 7.5 min). In addition, the activation at 0.01 µM on α1AAR [2] (8 min, read-out: α1AAR activation (Noradrenaline %), 10 nM NA, 8 min) is 54.9%; at α1AAR [2] (8.5 min, read-out: α1AAR activation (Noradrenaline %), 10 nM NA, 8.5 min) it was 60.5%; on α1AAR [2] (0.175 h, read-out: α1AAR activation (Noradrenaline %), 10 nM NA, 10.5 min) it was 78.1%; at α1AAR [2] (11 min, read-out: α1AAR activation (Noradrenaline %), 10 nM NA, 11 min), 83.6%; at α1AAR [2] (11.5 min, read-out: α1AAR activation (Noradrenaline %), 10 nM NA, […]) it was 88.1%; at α1AAR [2] (0.2 h, read-out: α1AAR activation (Noradrenaline %), 10 nM NA, 12 min) it was 90.9%. Moreover, the activation at 0.01 µM on α1AAR [2] (12.5 min, read-out: α1AAR activation (Noradrenaline %), 10 nM NA, 12.5 min) was found to be 92.5%; on α1AAR [2] (13 min, read-out: α1AAR activation (Noradrenaline %), 10 nM NA, 13 min) it was 95.2%; on α1AAR [2] (0.225 h, read-out: α1AAR activation (Noradrenaline %), 10 nM NA, 13.5 min), 98.2%; on α1AAR [2] (14 min, read-out: α1AAR activation (Noradrenaline %), 10 nM NA, 14 min) it was 99.3%; at α1AAR [2] (14.5 min, read-out: α1AAR activation (Noradrenaline %), 10 nM NA, […]), 99.1%; on α1AAR [2] (0.25 h, read-out: α1AAR activation (Noradrenaline %), 10 nM NA, 15 min), 102%. In addition, the activation at 0.01 µM stood at 102% on α1AAR [2] (15.5 min, read-out: α1AAR activation (Noradrenaline %), 10 nM NA, 15.5 min); 101% at α1AAR [2] (16 min, read-out: α1AAR activation (Noradrenaline %), 10 nM NA, 16 min); 99.9% at α1AAR [2] (17 min, read-out: α1AAR activation (Noradrenaline %), 10 nM NA, 17 min); 99.3% on α1AAR [2] (17.5 min, read-out: α1AAR activation (Noradrenaline %), 10 nM NA, 17.5 min); 99.3% at α1AAR [2] (0.3 h, read-out: α1AAR activation (Noradrenaline %), 10 nM NA, 18 min); 99% on α1AAR [2] (18.5 min, read-out: α1AAR activation (Noradrenaline %), 10 nM NA, 18.5 min). For the same molecule, the activation at 0.01 µM on α1AAR [2] (19 min, read-out: α1AAR activation (Noradrenaline %), 10 nM NA, 19 min) was 96.4%; at α1AAR [2] (0.325 h, read-out: α1AAR activation (Noradrenaline %), 10 nM NA, 19.5 min), 97.2%; on α1AAR [2] (20 min, read-out: α1AAR activation (Noradrenaline %), 10 nM NA, 20 min), 96%; on α1AAR [2] ([…], read-out: α1AAR activation (Noradrenaline %), 10 nM NA, 9 min), 64.4%; at α1AAR [2] ([…], read-out: α1AAR activation (Noradrenaline %), 10 nM NA, 16.5 min), 100%; at α1AAR [2] (read-out: α1AAR activation (Noradrenaline %), NA Log[M] -8), 45.2%. Also, the activation at 100 µM at α1AAR [2] (read-out: α1AAR activation (Noradrenaline %), NA Log[M] -4) is 86.3%. Besides, the activation at 1 µM at α1AAR [2] (read-out: α1AAR activation (Noradrenaline %), NA Log[M] -6) amounted to 105%. On α1AAR [2] (read-out: α1AAR activation (Noradrenaline %), NA Log[M] -7), the activation at 0.1 µM came out at 82.8%.

B1: Nb6: nanobody that engages the ICL3 of the inactive-state κ-opioid receptor (antibody, V domains shown)
VH: QVQLQESGGGLVQAGESLRLSCAASGTIFRLYDMGWYRRVSGNQRELVASITSGGSTKYGDSVKGRFTISRDNAKNTVYLQMSSLKPEDTAVYYCNAEYRTGIWEELLDGWGQGTQVTVSS
B1: in the test with α1AAR [1] (with 5 μM Nb6), the “Normalized [3H]prazosin-binding” value was 88.7285% and 103.574% and 107.698%.
